Assay results as given in patent US4835160A, “Derivatives of pyridoindole, having anti-tumor properties” (Sanofi, priority 1986, dated 1989).

Key:
[1] = in vivo; set-up: species or system CDF1 hybrid mice; details: mouse, ip, 50 mg/kg
Description: The compounds of the invention benefit from a good tolerance and a weak toxicity.
Thus the administration, to healthy CDF1 hybrid mice, in a single injection by intraperitoneal route, of the compounds under test, has enabled it to be established that the product is perfectly tolerated at a high dosage since the survival rate of the animals of the experiment was 100 out of 100 thirteen days after administration.

[2] = in vivo; set-up: species or system female CDF1 hybrid mice; details: mouse, iv
Protocol: In addition the administration, to healthy female CDF1 hybrid mice, in a single injection by intravenous route with a perfusor, lasting 4 minutes, of the compounds under test in solution in physiological serum at a rate of 0.1 ml of solution per 10 g weight of the animals has enabled it to be established that the compounds are also well tolerated at a high dosage in these conditions.

[3] = system: leukemia tumour line L 1210; experiment: In vitro cytotoxic activity on leukemia tumour line L 1210; assay type: cell-based; details: Mus musculus, L1210, 48 h, L 1210, 48 hours contact, 37° C.; read-out: I D 50 (concentration which inhibits the proliferation of the cells by 50%)
Protocol: (1) In vitro: ([…] et al., Chem. Biol. Interaction, 1979, 25, 45-58). The cytotoxic activity of the compounds of the invention has been evaluated by in vitro tests. These tests consist of adding increasing concentrations of the compound under test to a cellular culture of the leukemia tumour line L 1210 in an exponential phase of growth. The cellules are incubated at 37° C. in a CO2 incubator and counted every 24 hours. The calculation of the I D 50 (concentration of the product, expressed in 1^-1 micromole, which inhibits the proliferation of the cells by 50%) is made after 48 hours contact.

[4] = system: leukemia P 388; experiment: Test of leukemia P 388; IP/IP, D1-5; assay type: in vivo, CDF1 hybrid mice; details: D1-D5; for Number of survivors: day D30; for T/C %: survival time
Protocol: (2) In vivo: (GERAN et al., Cancer Chemother., 1972, 2, 07-57):
(§1) The antitumour activity was tested in vivo on various tumours inoculated in various ways according to the following general protocol:
(§2) All the male or female mice are inoculated on day D0 with a known quantity of viable tumour cells for ascitic tumours or with a known tumour fragment for solid tumours.
(§3) They are then distributed into various groups. Each group, corresponding to the animals treated by the product under test, is made up of 10 mice. The product under test is dissolved in distilled water and it is administered n times (Dx-Dy), n, y, and x varying according to the protocol chosen, at the rate of 0.1 ml of solution per 10 g by weight of mice treated and at specific doses for each protocol.
(§4) The "negative control" group, corresponding to the animals which are not treated by the product, contains 2√N animals, N being equal to or greater than the total number of mice treated by the product in the same experiment.
(§5) Finally, the tests can also be carried out at the same time as the study of a group called "positive control", of ten animals, which is treated by a molecule, known for its antitumour activity and which can vary according to the protocol chosen, in the same conditions as the groups treated by the product under test.
(§6) The antitumour activity is evaluated, in the case of ascitic tumours, by considering the increase in the survival time of the animals treated in comparison to that of the animals in the "negative control" group, according to the formula: [formula]
The criterion for activity varies according to the protocol.
(§7) Also, a product is considered as toxic at the dose studied when this T/C value is equal to or less than 85%. In addition, a product is also considered as toxic at the dose studied when the weight variation, expressed in grams and calculated by the formula: […]
"Average weight of the group measured on day 5--Average weight of the same group measured on day 1"
is equal to or less than 4 g.
(a) Test of lelukemia P 388; IP/IP, D1-5 (GERAN et al., Cancer Chemother., 1972, 2, 07-57).
The tests are carried out with CDF1 hybrid mice inoculated by intraperitoneal route with 10^6 leukemia cells from the P 388 line. The compound under test is administered for 5 successive days (D1-D5) by intraperitoneal route. The positive control for the test is 5-fluorouracile which is administered in the same conditions. The number of surviving animals is evaluated on day D30.

[5] = system: melanoma B 16; experiment: Test for melanoma B 16; assay type: in vivo, BDF1 hybrid mice; details: D1-D9; for Number of survivors: day D60; for T/C %: survival time
Protocol: as §1, §2, §3, §4, §5, §6, §7
(d) Test for melanoma B 16 (GERAN et al., Cancer Chemother., 1972, 2, 07-75).
The tests are carried out with BDF1 hybrid mice inoculated by intraperitoneal route with 0.5 ml of a homogenate of melanoma B 16 made up from 1 g of tumour in 10 ml of physiological serum. The compound under test is administered for 9 days (D1-D9) by intraperitoneal route. The positive control for the test is Cis-Platine administered in the same conditions. The number of surviving animals is evaluated on day D60.

[6] = system: leukemia L 1210; experiment: Test for leukemia L 1210 IP/D1 IV; assay type: in vivo, CDF1 hybrid mice; details: for Number of survivors: day D60; for T/C %: survival time
Protocol: as §1, §2, §3, §4, §5, §6, §7
The tests are carried out with CDF1 hybrid mice inoculated by intraperitoneal route with 10^5 leukemia cells from the L 1210 line. The compound under test is administered for 5 days (D1-D5) by intraperitoneal route. The positive control for the test is 5-fluorouracile administered in the same conditions. The number of surviving animals is evaluated on day D60.
(g) Test for leukemia L 1210 IP/D1 IV. (GERAN et al., Cancer Chemother., 1972, 2, 07-57).
The test is carried out according to the same protocol as that described for test (c), the compound under test being administered by intravenous route only on day D1.

## CCN(CC)CCCNc1ncc(C)c2c1c1cc(O)ccc1n2C [Derivative No. 11, 1-(3-diethylaminopropylamino)-4,5-dimethyl-8-hydroxy-5H-pyrido[4,3-b]indole]
[1]
  survival at 312 h: 100%
[2]; 40 mg/kg
  survival at 192 h: 100%
[2]; 50 mg/kg
  survival at 192 h: 100%
[3]
  IC50: 30 nM
[4]; 2.5 mg/kg IP
  Median day of survival: 17.25 days
  Variation by weight (g): +1.2 g
  Number of survivors: 0/10
  T/C %: 149%
[4]; 5 mg/kg IP
  Median day of survival: 19.25 days
  Variation by weight (g): +0.7 g
  Number of survivors: 0/10
  T/C %: 166%
[4]; 10 mg/kg IP
  Median day of survival: 23.75 days
  Variation by weight (g): +0.2 g
  Number of survivors: 2/10
  T/C %: 205%
[4]; 20 mg/kg IP
  Median day of survival: 7.4 days
  Variation by weight: -2.8 g
  Number of survivors: 0/10
  T/C %: 64%
[5]; 1.25 mg/kg IP
  Median day of survival: 32.25 days
  Variation by weight: -2.5 g
  Number of survivors: 0/10
  T/C %: 133%
[5]; 2.5 mg/kg IP
  Median day of survival: 35.25 days
  Variation by weight (g): +0.6 g
  Number of survivors: 0/10
  T/C %: 145%
[5]; 5 mg/kg IP
  Median day of survival: 41.25 days
  Variation by weight (g): +0.2 g
  Number of survivors: 3/10
  T/C %: 170%
[5]; 10 mg/kg IP
  Median day of survival: 19.3 days
  Variation by weight: -1.0 g
  Number of survivors: 0/10
  T/C %: 79%
[6]; 20 mg/kg IV
  Median day of survival: 11.8 days
  Variation by weight: -0.4 g
  Number of survivors: 0/10
  T/C %: 132%
[6]; 40 mg/kg IV
  Median day of survival: 13.3 days
  Variation by weight: -0.2 g
  Number of survivors: 0/10
  T/C %: 149%
